Test results from patent US8871753B2, “Macrocyclic compounds and their use as kinase inhibitors” (Incyte Corporation, priority 2008, dated 2014).
Where a name gives a salt, the structure may show the parent alone.

How the values were obtained:
Assay type in all cases: biochemical
TYK2 = TYK2 (Homo sapiens, UniProt P29597); assay: TYK2 kinase inhibition (Table A1); settings: Table B1
[1] = molecular target: T1, Recombinant Human Anaplastic Lymphoma Kinase (Homo sapiens, UniProt Q9UM73); assay: ALK HTRF kinase assay; settings: percentage inhibition of the example compound at a concentration of 500 nM or 1 mM (not specified which)
T1 construct: purchased Invitrogen, Carlsbad, Calif
T1 sequence (Q9UM73 19-1620): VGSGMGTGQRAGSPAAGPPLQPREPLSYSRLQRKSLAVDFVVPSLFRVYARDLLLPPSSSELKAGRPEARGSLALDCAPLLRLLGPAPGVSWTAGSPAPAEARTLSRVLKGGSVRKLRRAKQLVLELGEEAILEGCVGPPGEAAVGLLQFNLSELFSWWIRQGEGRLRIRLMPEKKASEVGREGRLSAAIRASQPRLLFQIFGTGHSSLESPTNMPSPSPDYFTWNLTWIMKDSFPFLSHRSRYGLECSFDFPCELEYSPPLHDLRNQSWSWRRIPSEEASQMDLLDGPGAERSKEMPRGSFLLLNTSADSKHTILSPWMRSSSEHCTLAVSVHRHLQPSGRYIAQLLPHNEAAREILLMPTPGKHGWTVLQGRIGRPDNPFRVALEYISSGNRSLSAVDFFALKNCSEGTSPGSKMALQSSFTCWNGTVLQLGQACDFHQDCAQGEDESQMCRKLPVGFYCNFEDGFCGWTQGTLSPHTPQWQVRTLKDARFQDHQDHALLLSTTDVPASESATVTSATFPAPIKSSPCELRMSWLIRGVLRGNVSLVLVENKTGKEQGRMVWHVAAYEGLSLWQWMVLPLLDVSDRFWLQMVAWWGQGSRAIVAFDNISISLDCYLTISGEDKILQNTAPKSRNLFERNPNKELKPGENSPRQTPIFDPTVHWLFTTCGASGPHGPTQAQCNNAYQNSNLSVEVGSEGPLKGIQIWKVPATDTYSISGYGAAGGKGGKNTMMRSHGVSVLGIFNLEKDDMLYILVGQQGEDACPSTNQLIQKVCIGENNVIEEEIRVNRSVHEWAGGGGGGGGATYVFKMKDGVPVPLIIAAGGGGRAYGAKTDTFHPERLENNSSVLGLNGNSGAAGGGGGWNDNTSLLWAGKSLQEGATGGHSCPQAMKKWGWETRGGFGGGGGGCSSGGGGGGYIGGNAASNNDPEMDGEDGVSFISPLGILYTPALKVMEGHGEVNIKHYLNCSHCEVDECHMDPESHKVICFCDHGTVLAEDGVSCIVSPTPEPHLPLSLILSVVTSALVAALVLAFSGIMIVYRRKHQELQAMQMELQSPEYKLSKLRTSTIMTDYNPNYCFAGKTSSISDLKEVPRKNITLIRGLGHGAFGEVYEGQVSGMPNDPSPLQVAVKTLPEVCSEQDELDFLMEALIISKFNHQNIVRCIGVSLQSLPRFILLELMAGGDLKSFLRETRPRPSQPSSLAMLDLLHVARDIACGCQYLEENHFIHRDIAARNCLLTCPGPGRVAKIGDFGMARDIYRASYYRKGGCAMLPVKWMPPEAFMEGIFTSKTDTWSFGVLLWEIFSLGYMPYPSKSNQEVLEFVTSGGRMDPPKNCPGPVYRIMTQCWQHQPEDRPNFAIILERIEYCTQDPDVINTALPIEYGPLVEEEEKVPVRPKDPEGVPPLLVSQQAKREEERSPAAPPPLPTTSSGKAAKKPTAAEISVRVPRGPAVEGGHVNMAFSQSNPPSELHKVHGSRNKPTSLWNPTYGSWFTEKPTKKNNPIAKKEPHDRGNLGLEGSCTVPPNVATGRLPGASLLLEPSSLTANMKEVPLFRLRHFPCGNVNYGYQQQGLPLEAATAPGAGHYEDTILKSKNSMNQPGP
Outline: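 TR-FRET read-out (Eu anti-pTyr antibody + streptavidin-APC) of biotin-peptide phosphorylation by recombinant human enzyme; IC50 by sigmoidal fit with top/bottom baselines and Hill slope.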

[2] = molecular target: T2, human JAK2 (a.a. 828-1132) (Homo sapiens, UniProt O60674); assay: In vitro JAK kinase assay (HTRF, phosphorylation of a biotinylated peptide), JAK2; settings: Table B1
T2 construct: JAK2 (a.a. 828-1132); His tag (N); made in house; host or cells: insect cells (baculovirus)
T2 sequence (O60674 828-1132): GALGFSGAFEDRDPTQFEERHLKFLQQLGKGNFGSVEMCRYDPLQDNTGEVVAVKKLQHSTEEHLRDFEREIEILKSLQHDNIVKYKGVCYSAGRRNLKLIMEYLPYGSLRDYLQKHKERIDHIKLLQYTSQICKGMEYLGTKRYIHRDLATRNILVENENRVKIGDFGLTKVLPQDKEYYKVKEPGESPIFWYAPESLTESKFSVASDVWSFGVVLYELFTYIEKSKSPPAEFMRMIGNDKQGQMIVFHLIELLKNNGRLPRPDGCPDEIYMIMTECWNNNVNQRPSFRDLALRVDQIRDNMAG
Outline: (§1)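 Phosphorylation of a biotinylated peptide by the JAK kinase domain, detected by HTRF with Eu-Py20 and SA-APC. ATP was 90 μM for JAK1, 30 μM for JAK2 and 3 μM for JAK3. Reactions ran 1 h at room temperature and were stopped with EDTA, followed by 40 min antibody binding.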

[3] = molecular target: T3, human JAK3 (a.a. 781-1124) (Homo sapiens, UniProt P52333); assay: In vitro JAK kinase assay (HTRF, phosphorylation of a biotinylated peptide), JAK3; settings: Table B1
T3 construct: JAK3 (a.a. 781-1124); His tag (N); made in house; host or cells: insect cells (baculovirus)
T3 sequence (P52333 781-1124): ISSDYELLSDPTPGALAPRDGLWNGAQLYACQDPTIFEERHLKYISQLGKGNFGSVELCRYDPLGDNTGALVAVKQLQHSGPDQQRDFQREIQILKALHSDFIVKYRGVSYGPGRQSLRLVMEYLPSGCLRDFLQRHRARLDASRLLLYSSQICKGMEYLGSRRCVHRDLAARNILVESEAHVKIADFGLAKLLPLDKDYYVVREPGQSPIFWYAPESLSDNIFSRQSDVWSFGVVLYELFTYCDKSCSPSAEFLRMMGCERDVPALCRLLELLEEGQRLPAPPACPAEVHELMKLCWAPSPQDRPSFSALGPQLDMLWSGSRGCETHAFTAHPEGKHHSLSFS
Outline: as §1

[4] = molecular target: T4, human JAK1 (a.a. 837-1142) (Homo sapiens, UniProt P23458); assay: In vitro JAK kinase assay (HTRF, phosphorylation of a biotinylated peptide), JAK1; settings: Table B1; read-out: JAK1 IC50
T4 construct: human JAK1 (a.a. 837-1142); His tag (N); made in house; host or cells: insect cells (baculovirus)
T4 sequence (P23458 849-1154): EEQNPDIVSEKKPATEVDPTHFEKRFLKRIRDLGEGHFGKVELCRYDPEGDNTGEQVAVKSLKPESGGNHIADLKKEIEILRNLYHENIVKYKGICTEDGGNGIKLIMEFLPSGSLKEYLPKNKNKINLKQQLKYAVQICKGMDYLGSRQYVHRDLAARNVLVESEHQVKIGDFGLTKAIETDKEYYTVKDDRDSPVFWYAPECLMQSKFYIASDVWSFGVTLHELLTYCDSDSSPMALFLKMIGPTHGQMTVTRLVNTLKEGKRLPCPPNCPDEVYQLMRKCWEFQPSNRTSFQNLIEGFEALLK
Outline: as §1

Sequence of TYK2 (P29597 whole entry): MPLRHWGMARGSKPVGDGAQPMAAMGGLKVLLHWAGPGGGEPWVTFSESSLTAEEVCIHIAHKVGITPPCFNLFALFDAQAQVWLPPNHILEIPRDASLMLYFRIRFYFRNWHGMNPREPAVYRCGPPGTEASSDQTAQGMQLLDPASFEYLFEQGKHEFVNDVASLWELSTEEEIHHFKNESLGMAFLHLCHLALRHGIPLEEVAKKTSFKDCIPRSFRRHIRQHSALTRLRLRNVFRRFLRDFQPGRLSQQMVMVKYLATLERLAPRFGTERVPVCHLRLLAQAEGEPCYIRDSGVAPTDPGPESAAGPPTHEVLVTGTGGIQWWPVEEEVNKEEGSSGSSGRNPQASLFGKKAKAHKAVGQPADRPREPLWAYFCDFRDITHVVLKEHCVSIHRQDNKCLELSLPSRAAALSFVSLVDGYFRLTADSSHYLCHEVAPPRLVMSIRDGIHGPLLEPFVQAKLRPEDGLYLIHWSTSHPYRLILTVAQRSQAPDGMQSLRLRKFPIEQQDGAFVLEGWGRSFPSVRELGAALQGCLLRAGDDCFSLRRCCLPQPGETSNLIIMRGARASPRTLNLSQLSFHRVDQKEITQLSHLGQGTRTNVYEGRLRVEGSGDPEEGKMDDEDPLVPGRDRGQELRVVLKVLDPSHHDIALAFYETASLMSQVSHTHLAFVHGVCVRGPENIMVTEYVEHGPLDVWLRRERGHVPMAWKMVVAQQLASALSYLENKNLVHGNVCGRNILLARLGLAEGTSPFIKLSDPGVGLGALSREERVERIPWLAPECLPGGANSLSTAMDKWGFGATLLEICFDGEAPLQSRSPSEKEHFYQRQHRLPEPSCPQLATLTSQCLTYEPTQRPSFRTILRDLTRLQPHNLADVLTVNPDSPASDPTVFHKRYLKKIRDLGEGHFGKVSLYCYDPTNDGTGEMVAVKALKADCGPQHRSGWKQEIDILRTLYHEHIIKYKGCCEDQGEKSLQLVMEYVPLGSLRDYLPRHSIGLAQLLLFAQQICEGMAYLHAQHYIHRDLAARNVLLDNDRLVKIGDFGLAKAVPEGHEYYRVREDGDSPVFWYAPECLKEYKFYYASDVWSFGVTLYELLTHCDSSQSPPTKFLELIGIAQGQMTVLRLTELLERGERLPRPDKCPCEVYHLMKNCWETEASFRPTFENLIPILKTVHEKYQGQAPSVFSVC

SMILES	IC50 (TYK2)	ALK % of inhibition at a concentration of 500 nM or 1 mM [1]	IC50 [2]	IC50 [3]	IC50 [4]
N#CNC(=O)Nc1ccc2cc1CCc1cccc(c1)Nc1ncc(Cl)c(n1)N2 [Example B323, N-[6-chloro-2,4,8,22-tetraazatetracyclo[14.3.1.1(3,7).1(9,13)]docosa-1(20),3(22),4,6,9(21),10,12,16,18-nonaen-12-yl]-N′-cyanourea trifluoroacetate]	0.89 nM	20%	14 nM	2.1 nM	12 nM
O=C(NO)Nc1ccc2cc1CCc1cccc(c1)Nc1ncc(Cl)c(n1)N2 [Example B324, N-[6-Chloro-2,4,8,22-tetraazatetracyclo[14.3.1.1(3,7).1(9,13)]docosa-1(20),3(22),4,6,9(21),10,12,16,18-nonaen-12-yl]-N′-hydroxyurea trifluoroacetate]	2.8 nM	16%	56 nM	7.5 nM	20 nM
CCS(=O)(=O)NCCNC(=O)Nc1ccc2cc1CCc1cccc(c1)Nc1ncc(Cl)c(n1)N2 [Example B325, N-{2-[({[6-Chloro-2,4,8,22-tetraazatetracyclo[14.3.1.1(3,7).1(9,13)]docosa-1(20),3(22),4,6,9(21),10,12,16,18-nonaen-12-yl]amino}carbonyl)amino]ethyl}ethanesulfonamide trifluoroacetate]	5.5 nM	19%	1.6 nM	6.4 nM	2 nM
CCCS(=O)(=O)NCCNC(=O)Nc1ccc2cc1CCc1cccc(c1)Nc1ncc(Cl)c(n1)N2 [Example B326, N-{2-[({[6-Chloro-2,4,8,22-tetraazatetracyclo[14.3.1.1(3,7).1(9,13)]docosa-1(20),3(22),4,6,9(21),10,12,16,18-nonaen-12-yl]amino}carbonyl)amino]ethyl}propane-1-sulfonamide trifluoroacetate]	6.9 nM	19%	3.4 nM	7.8 nM	3 nM
O=C(NCCNS(=O)(=O)C1CC1)Nc1ccc2cc1CCc1cccc(c1)Nc1ncc(Cl)c(n1)N2 [Example B327, N-{2-[({[6-Chloro-2,4,8,22-tetraazatetracyclo[14.3.1.1(3,7).1(9,13)]docosa-1(20),3(22),4,6,9(21),10,12,16,18-nonaen-12-yl]amino}carbonyl)amino]ethyl}cyclopropanesulfonamide trifluoroacetate]	5 nM	19%	1.8 nM	4.2 nM	2 nM
CN(C)S(=O)(=O)NCCNC(=O)Nc1ccc2cc1CCc1cccc(c1)Nc1ncc(Cl)c(n1)N2 [Example B328, N-[6-chloro-2,4,8,22-tetraazatetracyclo[14.3.1.1(3,7).1(9,13)]docosa-1(20),3(22),4,6,9(21),10,12,16,18-nonaen-12-yl]-N′-(2-{[(dimethylamino)sulfonyl]amino}ethyl)urea trifluoroacetate]	7.1 nM	16%	25 nM	24 nM	18 nM
O=C(NCCNS(=O)(=O)c1ccccc1)Nc1ccc2cc1CCc1cccc(c1)Nc1ncc(Cl)c(n1)N2 [Example B329, N-{2-[({[6-Chloro-2,4,8,22-tetraazatetracyclo[14.3.1.1(3,7).1(9,13)]docosa-1(20),3(22),4,6,9(21),10,12,16,18-nonaen-12-yl]amino}carbonyl)amino]ethyl}benzenesulfonamide trifluoroacetate]	5.8 nM	20%	3.2 nM	6.5 nM	3 nM
O=C(NCCNS(=O)(=O)c1ccc(Cl)s1)Nc1ccc2cc1CCc1cccc(c1)Nc1ncc(Cl)c(n1)N2 [Example B330, 5-Chloro-N-{2-[({[6-chloro-2,4,8,22-tetraazatetracyclo[14.3.1.1(3,7).1(9,13)]docosa-1(20),3(22),4,6,9(21),10,12,16,18-nonaen-12-yl]amino}carbonyl)amino]ethyl}thiophene-2-sulfonamide trifluoroacetate]	16 nM	21%	6.1 nM	7.1 nM	4 nM
O=C(NCCNS(=O)(=O)c1ccc(Cl)nc1)Nc1ccc2cc1CCc1cccc(c1)Nc1ncc(Cl)c(n1)N2 [Example B331, 6-Chloro-N-{2-[({[6-chloro-2,4,8,22-tetraazatetracyclo[14.3.1.1(3,7).1(9,13)]docosa-1(20),3(22),4,6,9(21),10,12,16,18-nonaen-12-yl]amino}carbonyl)amino]ethyl}pyridine-3-sulfonamide trifluoroacetate]	16 nM	27%	3.6 nM	2.7 nM	2 nM
Cn1ccc(S(=O)(=O)NCCNC(=O)Nc2ccc3cc2CCc2cccc(c2)Nc2ncc(Cl)c(n2)N3)n1 [Example B332, N-{2-[({[6-chloro-2,4,8,22-tetraazatetracyclo[14.3.1.1(3,7).1(9,13)]docosa-1(20),3(22),4,6,9(21),10,12,16,18-nonaen-12-yl]amino}carbonyl)amino]ethyl}-1-methyl-1H-pyrazole-3-sulfonamide trifluoroacetate]	8.2 nM	23%	3.4 nM	26 nM	3 nM
Clc1cnc2nc1Nc1ccc(Nc3nc4cccnc4o3)c(c1)CCc1cccc(c1)N2 [Example B333, 6-Chloro-N-[1,3]oxazolo[5,4-b]pyridin-2-yl-2,4,8,22-tetraazatetracyclo[14.3.1.1(3,7).1(9,13)]docosa-1(20),3(22),4,6,9(21),10,12,16,18-nonaen-12-amine tris(trifluoroacetate)]	1.2 nM	55%	15 nM	1 nM	6.8 nM
CNCc1ccc2cc1CCc1cncc(c1)Nc1ncc(Cl)c(n1)N2 [Example B334, 1-[6-Chloro-2,4,8,18,22-pentaazatetracyclo[14.3.1.1(3,7).1(9,13)]docosa-1(20),3(22),4,6,9(21),10,12,16,18-nonaen-12-yl]-N-methylmethanamine trihydrochloride]	> 200 nM	72%	199 nM	> 200 nM	44 nM
Cc1cc(C(=O)N2CCC(C(=O)N(C)Cc3ccc4cc3CCc3cncc(c3)Nc3ncc(Cl)c(n3)N4)CC2)no1 [Example B335, N-{[6-Chloro-2,4,8,18,22-pentaazatetracyclo[14.3.1.1(3,7).1(9,13)]docosa-1(20),3(22),4,6,9(21),10,12,16,18-nonaen-12-yl]methyl}-N-methyl-1-[(5-methylisoxazol-3-yl)carbonyl]piperidine-4-carboxamide bis(trifluoroacetate)]	> 200 nM	18%	77 nM	> 200 nM	45 nM
